Measurements published in patent US20130059783A1, “COMPOSITIONS AND METHODS FOR EXPANDING BFU-E CELLS” (priority 2010, published 2013).

Assays:
[1] = test system: BFU-E cells; test: CFU-E and BFU-E colony forming assays of BFU-E cells cultured in SFELE medium; assay type: cell-based, mouse; conditions: for Total colony numbers from 1,000 "BFU-E" cells: CFU-E 1 cluster / Total colony numbers from 1,000 "BFU-E" cells: large BFU-E >20 clusters / Total colony numbers from 1,000 "BFU-E" cells: small BFU-E 5-20 clusters: CD24 and CD71 10% low BFU-E cells, SFELE, 100 nM Dex and/or 333 μM DMOG; for Total colony numbers from 1000 BFU-E cells: Large BFU-E / Total colony numbers from 1000 BFU-E cells: Single CFU-E / Total colony numbers from 1000 BFU-E cells: Small BFU-E: CD71 10% low BFU-E cells, SFELE with 100 nM Dex
Procedure: Dexamethasone prevents BFU-E cell exhaustion, which allows more CFU-E cells to be formed. […] (A) The total number of cells formed from 1000 BFU-E cells at different time points. […] Standard deviation between four separate biological experiments is shown in parenthesis (n/d=not determined).
At daily intervals colony assays were performed (Table 2). As in the experiment in FIG. 3, for the first three days the total number of cells increased at the same rate in all cultures.
(§1) Colonies were scored after 3 days. […] The number of hemoglobinized early BFU-E and late BFU-E colonies was determined after 8-9 days following staining with 2,7-Diaminofluorene (Sigma Chemical, St. Louis, Mo.).

[2] = test system: fetal liver erythroid progenitor (FLEP) cells; test: Colony forming assays of magnetically depleted fetal liver cells (Table S1); assay type: cell-based, mouse; conditions: Lin− fetal liver cells, EPO, SCF, IL-3, IL-6, 100 nM Dex
Procedure: The negatively enriched cell populations were subjected to colony forming assays under two different conditions. […] CFU-E colonies were counted 3 days later. […] These cells were cultured 8-9 days before late BFU-E, early BFU-E, CFU-G/M/Mk (granulocyte, monocyte, megakaryocyte), and CFU-GEMM (granulocyte, erythrocyte, monocyte, megakaryocyte) colonies were scored. BFU-Es consisting of a cluster of only 5-20 CFU-Es were scored as late, while larger BFU-Es were scored as early. 2,7-fluorenediamine was used to stain hemoglobin-containing colonies in the plates. […] Standard deviation between experiments is shown in parenthesis.
The first step towards enrichment of BFU-E and CFU-E cells was to remove more mature blood cells from single cell suspensions of fetal livers by magnetic column depletion. We stained fetal liver cells with a panel of biotin labeled anti-lineage (Lin) antibodies (Ter119, B220, Mac-1, CD3 and Gr-1), followed by anti-biotin tetramer and magnetic colloid labeling. All positive cells were depleted using magnetic columns.
as §1

[3] = CD71 10% low cells, SFELE with Dex, Day 3
[4] = Day 3 of culture, 100 nM Dex or 333 μM DMOG alone

C[C@@H]1C[C@H]2[C@@H]3CCC4=CC(=O)C=C[C@]4(C)[C@@]3(F)[C@@H](O)C[C@]2(C)[C@@]1(O)C(=O)CO [Dex, dexamethasone]
Total colony numbers from 1,000 "BFU-E" cells: CFU-E 1 cluster ([1]; day 0 (before culture)): 30 (±11) | Total colony numbers from 1,000 "BFU-E" cells: large BFU-E >20 clusters ([1]; day 0 (before culture)): 423 (±31) | Total colony numbers from 1,000 "BFU-E" cells: small BFU-E 5-20 clusters ([1]; day 0 (before culture)): 262 (±64) | Total colony numbers from 1,000 "BFU-E" cells: CFU-E 1 cluster ([1]; day 1): 424 (±271) | Total colony numbers from 1,000 "BFU-E" cells: large BFU-E >20 clusters ([1]; day 1): 463 (±61) | Total colony numbers from 1,000 "BFU-E" cells: small BFU-E 5-20 clusters ([1]; day 1): 1,766 (±695) | Total colony numbers from 1,000 "BFU-E" cells: CFU-E 1 cluster ([1]; day 2): 11,468 (±1,088) | Total colony numbers from 1,000 "BFU-E" cells: large BFU-E >20 clusters ([1]; day 2): 482 (±110) | Total colony numbers from 1,000 "BFU-E" cells: small BFU-E 5-20 clusters ([1]; day 2): 5,771 (±1,625) | Total colony numbers from 1,000 "BFU-E" cells: CFU-E 1 cluster ([1]; day 3): 60,699 (±22,369) | Total colony numbers from 1,000 "BFU-E" cells: large BFU-E >20 clusters ([1]; day 3): 400 (±108) | Total colony numbers from 1,000 "BFU-E" cells: small BFU-E 5-20 clusters ([1]; day 3): 8,334 (±2,489) | Total colony numbers from 1,000 "BFU-E" cells: CFU-E 1 cluster ([1]; day 4): 138,600 (±24,546) | Total colony numbers from 1,000 "BFU-E" cells: CFU-E 1 cluster ([1]; day 5): 261,550 (±98,160) | Total colony numbers from 1,000 "BFU-E" cells: large BFU-E >20 clusters ([1]; day 5): 0 | Total colony numbers from 1,000 "BFU-E" cells: small BFU-E 5-20 clusters ([1]; day 5): 10,271 (±3,344) | Total colony numbers from 1,000 "BFU-E" cells: CFU-E 1 cluster ([1]; day 6): 249,160 (±55,172) | Total colony numbers from 1,000 "BFU-E" cells: CFU-E 1 cluster ([1]; day 7 (performed twice)): 176,000 (±15,556) | Total colony numbers from 1,000 "BFU-E" cells: CFU-E 1 cluster ([1]; day 8 (performed twice)): 66,000 (±56,003) | Total colony numbers from 1000 BFU-E cells: Large BFU-E ([1]; 0 h (before culture)): 241 (±79) | Total colony numbers from 1000 BFU-E cells: Single CFU-E ([1]; 0 h (before culture)): 73 (±26) | Total colony numbers from 1000 BFU-E cells: Small BFU-E ([1]; 0 h (before culture)): 277 (±89) | Total colony numbers from 1000 BFU-E cells: Large BFU-E ([1]; 24 h): 181 (±132) | Total colony numbers from 1000 BFU-E cells: Single CFU-E ([1]; 24 h): 1,164 (±593) | Total colony numbers from 1000 BFU-E cells: Small BFU-E ([1]; 24 h): 1,568 (±604) | Total colony numbers from 1000 BFU-E cells: Large BFU-E ([1]; 48 h): 130 (±53) | Total colony numbers from 1000 BFU-E cells: Single CFU-E ([1]; 48 h): 25,342 (±5,714) | Total colony numbers from 1000 BFU-E cells: Small BFU-E ([1]; 48 h): 6,730 (±515) | Total colony numbers from 1000 BFU-E cells: Large BFU-E ([1]; 72 h): 150 (±58) | Total colony numbers from 1000 BFU-E cells: Single CFU-E ([1]; 72 h): 122,413 (±14,086) | Total colony numbers from 1000 BFU-E cells: Small BFU-E ([1]; 72 h): 15,350 (±3,838) | Total colony numbers from 1000 BFU-E cells: Single CFU-E ([1]; 120 h): 904,050 (±434,778) | Late BFU-Es per initial sorted BFU-E cell ([1]; CD71 10% low cells, SFELE with Dex, Day 2): 67 | CFU-Es formed per BFU-E [1, 3]: 122 | Late BFU-Es per initial sorted BFU-E cell [1, 3]: 153 | BFU-Es per plated BFU-E [1, 4]: 8.7 | CFU-Es per plated BFU-E [1, 4]: 51 | Increase of number of CFU-E cells between Days 3 and 5 ([1]; cultures with Dex): 7.3 fold | CFU-G/M/Meg colonies, scored day 8-9 [2]: 25 (±5) colonies per 1000 plated cells
